Experimental data: patent publication US20210378193A1, “HAPLOID EMBRYOGENESIS” (STICHTING WAGENINGEN RESEARCH, priority 2013, published 2021)

Assays:
histone H3 and H4 = test: Western blot of protein and histone acetylation in B. napus microspore cultures; format: cell-based, Brassica napus
Procedure: Freshly isolated microspores and microspores cultured for 8 hours under different experimental conditions were harvested by centrifugation. Proteins were extracted by boiling in SDS-sample buffer (30 μl per ml of culture) and electrophoresed in a Midget 12.5% SDS-PAGE gel under reducing conditions. After transfer of the proteins to PVDF membrane and blocking with 5% milk powder in PBS, 0.1% Tween 20, the blots were incubated for 2 hours with primary antibody (1:2000 dilution). The primary antibodies used in this study are as follows: anti-acetyl-Lysine (ICP0380; ImmuneChem Pharmaceuticals), anti-Histone H3 (ab1791; Abcam), anti-Histone H4 (clone 62-141-13; Millipore), and anti-acetyl-Histone H3 and anti-acetyl-Histone H4 (Millipore). Secondary goat anti-rabbit-HRP antibody (Sigma) was used in a 1:2000 dilution, and signals were detected by using enhanced chemiluminescence (SuperSignal West Femto Chemiluminescent Substrate, Pierce). An acetylated lysine antibody was used in combination with protein gel blotting to identify proteins whose acetylation status changes in 8-hour heat-stress plus TSA-treated B. napus microspore cultures compared to heat-stressed control cultures. […] Panels show: (A)=Western blot of total acetylated proteins in microspore cultures treated for eight hours with DMSO (control) or TSA—proteins in the range of 10-25 kDa are differentially acetylated after TSA treatment compared to the control; (B)=Western blot of total and acetylated (Ac) histone H3 and H4 in microspore cultures treated for eight hours with DMSO (control) or TSA. The percentages of sporophytic divisions in the different cultures at day 5 are shown under each sample. […] The acetylation status of histones H3 and H4 was determined during microspore culture using acetylated histone H3 (Ac-H3) and H4 (Ac-H4) antibodies. Microspore cultures were started from buds containing mostly binucleate pollen and placed for eight hours at either 18° C. or 33° C. with or without 0.5 μM TSA. […] (FIG. 8B).

[1] = test system: Brassica oleracea Gongylodes group (kohlrabi) microspores; test: embryo production in Brassica oleracea Gongylodes group (kohlrabi) microspore culture; format: cell-based
Excerpt: Microspores of different developmental stages were isolated by a standard method ([…] 1982, Journal of Plant Physiology 105:427-434).

CC(/C=C/C(=O)NO)=C\[C@@H](C)C(=O)c1ccc(N(C)C)cc1 [TSA, trichostatin A]
total amount of histone H3 and H4 (histone H3 and H4; 0.5 μM TSA, eight hours): no clear effect | sporophytic divisions compared to untreated controls (histone H3 and H4; 0.5 μM TSA, eight hours at 18° C. and 33° C., divisions at day 5): greatly enhanced | level of histone H3 and H4 acetylation relative to control (histone H3 and H4; 0.5 μM TSA, eight hours, 18° C. and 33° C.): increased dramatically | acetylation of small molecular weight proteins in the range of 10-25 kDa (histone H3 and H4; 8-hour heat-stress plus TSA versus heat-stressed control): Increased protein acetylation | general embryo production, sum of experiments ([1]; 0.5 μM TSA, not heat-shocked (25° C.), control sum 204): 841 | large embryos in a recalcitrant (non-responsive) genotype ([1]; 18 days, not in the control): Large embryos are present | embryogenic clusters in a recalcitrant (non-responsive) genotype ([1]; early time point, not in the control culture): found at an early time point
